Measured values: US20040219186A1, “Expandable gastric retention device” (priority 2001, published 2004)
≈ marks a conversion by molar mass, not a printed value. Read-outs that look alike come from different tables or passages of the source.

Assays:
[1] = system: Strep. pneumococci; conditions: cited from earlier work
[2] = in vivo; cited from earlier work
[3] = Hydrochlorothiazide 50 mg bio-study, IR versus GRD, urinary drug excretion, urine output and side effects, fasting subjects; format: in vivo; conditions: both sexes, human, oral, HCTZ 50 mg, read-out: Elimination half-life (t1/2) (converted)
Method: Two formulations for hydrochlorothiazide (an immediate release formulation (IR) and a gastric retention device (GRD)) containing sustained release formulations (SR) were administered in the bio-study (bioavailability study). A commercial tablet containing 50 mg of HCTZ was used as an IR control, and spray-coated beads equivalent to 50 mg of HCTZ were formulated for SR in the lab. The process of SR formulation is described above. Bio-study was performed to evaluate the bioavailability as well as pharmacodynamics of HCTZ from a GRD compared to those from an IR.
Monitoring concentrations of hydrochlorothiazide in the urine of healthy adult volunteers allowed comparison of the relative bioavailability of hydrochlorothiazide from the GRD formulation and from a conventional tablet. Participation involved at least two days for each treatment with at least 72-hours washout period between doses. An IR was given once and the GRD was repeated twice to test the reproducibility of the new dosage form, GRD. A 50 mg dose of was chosen for the study because it was in the range of the recommended dose from the PDR (Physician's Desk References) and it produced concentrations high enough to make HPLC analysis efficient. Six subjects participated in the study, 4 healthy males and 2 healthy females. […] The volume of urine collected was measured in order to calculate total amount of drug recovered. […]

Row | SMILES | MIC [1] [µg/mL] | half-life [2] | half-life [3] [h]
1 | CC1(C)S[C@@H]2[C@H](NC(=O)[C@H](N)c3ccc(O)cc3)C(=O)N2[C@H]1C(=O)O [Amoxicillin] | 0.02 (≈ 0.0547 µM) | about 1 hour | –
2 | NS(=O)(=O)c1cc2c(cc1Cl)NCNS2(=O)=O [hydrochlorothiazide] | – | – | ~7
